One assay addresses T1, CB1 (Homo sapiens, UniProt P21554).
T1 construct: purchased Perkin Elmer RBHCB1M
Briefly: Radioligand displacement assay on CB1 receptor. The format is binding. How it is done:
For the CB1 receptor, binding experiments were performed in the presence of 0.39 nM of the radioligand [^3H]CP55,940 (168 Ci/mmol) (Perkin Elmer, Waltham, MA, US) at 30°C in siliconized glass vials together with 7.16 µg of membrane recombinantly over-expressing CB1 (No. RBHCB1M, Perkin Elmer, Waltham, MA, US), which was resuspended in 0.2 mL (final volume) binding-buffer (50 mM TRIS-HCl, 2.5 mM EGTA, 5 mM MgCl2, 0.5 mg/mL fatty acid free BSA, pH 7.4). Test compounds were present at varying concentrations and the nonspecific binding of the radioligand was determined in the presence of 10 µM CP55,940 (Tocris Cookson Ltd., Bristol, UK). After 1.5 h incubation, the suspension was rapidly filtered through 0.05% polyethylenimine pre-soaked GF/C glass fiber filters on a 96-well cell harvester and washed nine times with 0.5 mL ice-cold washing-buffer (50 mM TRIS-HCl, 2.5 mM EGTA, 5 mM MgCl2, 2% BSA, pH 7.4). Radioactivity on filters was measured with a Beckman LS 6500 scintillation counter in 3 mL Ultima Gold scintillation liquid (Perkin Elmer, Waltham, MA, US). Data collected from three independent experiments performed in triplicates were normalized between 100% and 0% specific binding for [^3H]CP55,940. […] Derived from the dissociation constant (KD) of [^3H]CP55,940 and the concentration-dependent displacement (IC50 value), inhibition constants (Ki) of competitor compounds were calculated using the Cheng-Prusoff equation [Ki = IC50/(1+ L/KD)].
On the technique in general: In a radioligand displacement assay an active substance lowers the binding of a labelled ligand.

In assay [1] the test system is Arachidonoylethanolamide Transport (AEAT). In words: Cellular uptake of [3H]-AEA in U937 cells (assay C). The format is cell-based, Human. The conditions noted are these: Homo sapiens, U-937, read-out: EC50 value, AEA re-uptake inhibition. How it is done: 5x10^5 cells were collected and suspended in 500 µL of sterile PBS (Sigma, San Louis, MO, US) using glass silanized tubes. Cells were pre-incubated 10 min at 37°C in presence of test compounds in a concentration range of 10^-8 - 10^-4 M or in presence of the same amount of solvent (control). Then a mixture of 50 nM [^3H]-AEA (60 Ci/mmol) (American Radiolabeled Chemicals, Inc., San Louis, MO, US) and 50 nM of nonradioactive AEA (Tocris Cookson Ltd., Bristol, UK) was added and samples were incubated at 37°C for different times in the range of 1-60 min. The reaction was stopped by rapid filtration over Whatman GF/C filters pre-soaked in 0,25 % BSA. […] The filters-bound radioactivity was measured using a Beckman LS6500 scintillation counter. Results were expressed as % of AEA uptake versus cells treated with solvent and the EC50 and IC50 values were calculated from the sigmoidal curves, which were generated using the GraphPad Prism (GraphPad Software, San Diego, CA, US).

Another assay concerns NO2^- production. Briefly: NO2- production in LPS-stimulated human macrophages (Griess reagent). The format is cell-based. The conditions noted are these: Figure 5; LPS 500 ng/ml; 5 µM for 18 h. The procedure: (§1) • Figure 1: AEA re-uptake inhibition of 2E,4E-dieneamides 1 and 9 into human primary monocytes and U937 cells. […] Data are mean values ± SEM of 3 independent experiments in a sigmoidal dose-response curve. • Figure 2: Concentration-dependent effects of 4 and 5 on FAAH activity. […] The maximal inhibition (32%) of 5 was measured at 1 µM. Data are mean values ± SEM of 3 independent experiments. • Figure 3: Effects of low nM concentrations of N-alkylamide 7 on FAAH activity alone and in combination with the FAAH inhibitor URB597. […] Data are mean values ± SEM of 3 independent experiments. • Figure 4: 1 and 9 inhibit LPS-induced TNF-alpha release into culture medium (measured by ELISA). Human macrophages (10^6 cells) were stimulated with LPS (500 ng/ml) and treated with UCM707 and/or compounds 1 and 9 at 5 µM for 18 h. N = 3 ± SEM. • Figure 5: UCM707 (positive control) and compounds 1 and 9 diminish NO2^- production. Human macrophages (10^6 cells) were stimulated with LPS (500 ng/ml) and treated with UCM707 and/or compounds 1 and 9 at 5 µM for 18 h. Culture supernatants were assayed for nitrite levels, using the Griess reagent as a reflection of NO production. Results are the mean ± SEM of four independent experiments performed in duplicate • Figure 6: In CB receptor expressing human HaCaT keratinocytes (10^6 cells) UCM707 (control) 1 and 9 like the endocannabinoid anandamide (each 5 µM) inhibited tolerogen (10 µg/ml) induced chemokine IL-8 (6h stimulation and incubation). N = 3 ± SEM.
(In general: Nitrite, measured by Griess reagent, commonly stands in for NO production.)

In another assay the test system is IL-8. Briefly: Induced chemokine IL-8 in HaCaT keratinocytes. The format is cell-based, human. The conditions noted are these: Figure 6, 5 µM, tolerogen 10 µg/ml, 6h. The procedure:
as §1

From patent EP2435019B1, “DODECA-2E,4E-DIENE AMIDES AND THEIR USE AS MEDICAMENTS AND COSMETICS” (Dr. August Wolff GmbH & Co. KG Arzneimittel, priority 2009, dated 2010) come the findings set out here.

T1 sequence (P21554 whole entry): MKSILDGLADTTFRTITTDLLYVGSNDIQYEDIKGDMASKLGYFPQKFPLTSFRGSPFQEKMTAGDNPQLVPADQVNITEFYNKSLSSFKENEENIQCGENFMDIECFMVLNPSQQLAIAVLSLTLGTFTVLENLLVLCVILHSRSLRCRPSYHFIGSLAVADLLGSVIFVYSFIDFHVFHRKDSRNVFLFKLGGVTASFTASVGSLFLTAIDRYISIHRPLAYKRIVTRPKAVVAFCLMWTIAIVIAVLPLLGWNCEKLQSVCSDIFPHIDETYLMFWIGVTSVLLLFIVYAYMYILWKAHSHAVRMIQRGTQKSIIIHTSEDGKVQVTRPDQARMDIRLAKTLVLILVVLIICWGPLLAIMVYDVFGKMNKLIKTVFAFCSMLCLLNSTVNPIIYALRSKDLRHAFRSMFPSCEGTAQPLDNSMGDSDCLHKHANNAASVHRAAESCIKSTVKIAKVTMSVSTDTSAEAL

In turn, `CCCCCCC/C=C/C=C/C(=O)NCCO` [Example 1, (2E,4E)-N-(2-hydroxyethyl)dodeca-2,4-diene amide] had a Ki on CB1 greater than 20 µM. Moreover, the concentration for a half-maximal effect (EC50) in assay [1] is 1.23 ± 0.305 µM. For the same compound, in the assay with NO2^- production, the “NO2^- production” value is recorded as “diminish”. The “tolerogen induced chemokine IL-8” value in the assay on IL-8 is recorded as “inhibited”.
For `CCCCCCC/C=C/C=C/C(=O)NCCc1cccc(OC)c1` [Example 9, (2E,4E)-N-(3-methoxyphenethyl)dodeca-2,4-diene amide] the same measures were greater than 20 µM, 0.869 ± 0.172 µM, “diminish” and “inhibited”.

In general, Ki refers to a dissociation constant, usually derived from enzyme kinetics or from competition with a known ligand. A high value points to a looser hold on the target. The term EC50 denotes the concentration needed to bring the measured effect to its halfway point.
